# Legend:
# [1] = cited from earlier work
# [2] = Solubility of KTZ, shake-flask method; assay type: physicochemical; conditions: for solubility at 24 h: 25 °C; for Improvement of KTZ solubility by TTO: 5% TTO
# Method: Mixtures were mechanically shaken for 24 h at 25 °C ± 0.5 °C and allowed to stand for 24 h to attain equilibrium. Then, the samples were centrifuged at 4000 rpm for 15 min, followed by filtration through a CA membrane filter (0.45 μm), diluted appropriately with methanol, and analyzed by the HPLC method at 231 nm against a standard.
smiles,measurement,setting,value
"CC(=O)N1CCN(c2ccc(OCC3COC(Cn4ccnc4)(c4ccc(Cl)cc4Cl)O3)cc2)CC1 (centres unmarked) [KTZ, Ketoconazole]",Solubility in water,[1],0.0866 to 40.0 µg/mL
same,pH of highest stability,[1],6–8
same,solubility at 24 h,[2]; Castor oil,93.5 ± 8.39 µg/mL
same,solubility at 24 h,[2]; Isopropyl myristate,94 ± 3.26 µg/mL
same,solubility at 24 h,[2]; Paraffin oil,17 ± 2.84 µg/mL
same,solubility at 24 h,[2]; Water,9.56 ± 0.09 µg/mL
same,solubility at 24 h,"[2]; castor oil with 5% TTO, oil or lipid, thermodynamic from solid, Castor oil + TTO 5%",155 ± 7.94 µg/mL
same,Improvement of KTZ solubility by TTO,[2]; castor oil,about 2 fold
same,solubility at 24 h,"[2]; isopropyl myristate with 5% TTO, oil or lipid, thermodynamic from solid, Isopropyl myristate + TTO 5%",131 ± 5.13 µg/mL
same,Improvement of KTZ solubility by TTO,[2]; isopropyl myristate,about 2 fold
same,solubility at 24 h,"[2]; paraffin oil with 5% TTO, Paraffin oil + TTO 5%",80.1 ± 6.5 µg/mL
same,Improvement of KTZ solubility by TTO,[2]; paraffin oil,5 fold
same,solubility at 24 h,"[2]; water with 5% TTO, aqueous with cosolvent or surfactant or cyclodextrin, thermodynamic from solid, Water + TTO 5%",35.7 ± 4.59 µg/mL
same,Improvement of KTZ solubility by TTO,[2]; water,~4 fold

# From publication PMC8582737 (International Journal of Molecular Sciences, 2021)
